Test results published in patent publication US12138312B2, “Cell-penetrating peptides for antisense delivery” (Sarepta Therapeutics, Inc., priority 2017, dated 2024).
Read-outs that look alike come from different tables or passages of the source. No end group written: not given here.

System: HeLa 654 cells
Test: eGFP exon-skipping reporter assay, flow cytometry analysis of GFP fluorescence
Type: cell-based
[1] = eGFP fluorescence of CPP-PMO IVS2-654 conjugate compared to unconjugated PMO, 5 μM, 22 hours, MEM with 10% FBS
[2] = […], 5 μM, 22 hours, MEM with 10% FBS

| Substance | Activity Relative to PMO [1] | Activity Relative to PMO [2] | further results |
| --- | --- | --- | --- |
| Buforin 2 | 1.9 | – | – |
| Melittin | – | 4.5 | – |
| Penetratin | 4.2 | – | – |
| Pyrrhocoricin (VDKGSYLPRPTPPRPIYNRN; ends and bridges not checked; also: conjugated to PMO cargo; UniProt P37362 1-20, looked up) | – | – | Activity Relative to PMO: 1.4 |
| SAP(E) | 0.8 | – | – |
| Transportan 10 | – | 0.8 | – |
| λN(1-22): PMO IVS2-654 conjugated to CPP MDAQTRRRERRAEKQAQWKAAN (also: conjugated to PMO IVS2-654 cargo; UniProt P03045 1-22, looked up, fragment) | – | 1.4 | – |
